Molecules are shown by their SMILES.

Data set [1] is described as follows: Tolerability / lethality in mice. It is filed as in vivo. The note with it: 10 animals. From the text:
Moreover, the new compounds are well tolerated.

Data set [2] deals with phosphodiesterase from B16 melanoma tissue (B16 tumour cells). The experiment in a line: PDE inhibition (PDE assay), phosphodiesterase from B16 melanoma tissue, 3H-cAMP substrate. The data set is classed as biochemical, mice. To be noted: concentration which inhibited PDE activity by 50%, 1 μmol/l 3H-cAMP as substrate, read-out: PDE inhibition ED50, B16 tumour cells. How it is done: The phosphodiesterase was obtained from B16 melanoma tissue from mice by centrifuging the homogenised tissue at 5000×g (15 minutes at 4° C.). The tissues were homogenized by repeated freezing and thawing and homogenisation according to Potter-Elvehjem or by ultrasound. The homogenised supernatant containing the PDE was deep frozen and stored in batches at -25° C.
(§1) The PDE inhibition by the test substances was determined using 1 μmol/1 of ^3 H-cAMP as substrate. The PDE inhibition was determined by measuring the degradation of the substrate ^3 H-cAMP used into ^3 H-AMP by comparison with the control without the test substance. The ^3 H-AMP formed was separated from the remaining ^3 H-cAMP by precipitation with zinc sulphate-barium hydroxide.
(§2) The ED50, i.e. the concentration which inhibited the PDE activity by 50%, was calculated by linear regression analysis.

Data set [3] concerns the target phosphodiesterase from human thrombocytes. The experiment in a line: PDE inhibition (PDE assay), phosphodiesterase from human thrombocytes, 3H-cAMP substrate. The data set is classed as biochemical. To be noted: concentration which inhibited PDE activity by 50%, 1 μmol/l 3H-cAMP as substrate, read-out: PDE inhibition ED50, Human thrombocytes. How it is done:
Phosphodiesterase was obtained from human thrombocytes by an analogous method.
as §1, §2

On to `CSc1ncnc2c(N3CCCC3)nc(N3CCNCC3)nc12` [Substance A, 8-Methylthio-2-piperazino-4-pyrrolidino-pyrimido[5,4-d]pyrimidine], for which the deaths of animals result in data set [1] (20 mg/kg i.v.) and in data set [1] (100 mg/kg p.o.) was “none of the 10 animals used died” each time. In addition, the IC50 in data set [2] is 66 nM; in data set [3], 1600 nM.

With `CCN(CC)c1nc(N2CCNCC2)nc2c(SC)ncnc12` [Substance B, 4-Diethylamino-8-methylthio-2-piperazino-pyrimido[5,4-d]pyrimidine], the IC50 in data set [2] was 37 nM; in data set [3], 1300 nM.

For the molecule `CCCCCCNc1nc(N2CCNCC2)nc2c(SC)ncnc12` [Substance C, 4-n-Hexylamino-8-methylthio-2-piperazino-pyrimido[5,4-d]pyrimidine], the IC50 in data set [2] is 120 nM; in data set [3], 1200 nM.

For `CSc1ncnc2c(N3CCCCCC3)nc(N3CCNCC3)nc12` [Substance D, 4-Hexamethyleneimino-8-methylthio-2-piperazinopyrimido[5,4-d]pyrimidine], the IC50 was 28 nM in data set [2] and 1700 nM in data set [3].

The values above are taken from patent US4714698A, “8-alkylthio-2-piperazino-pyrimido[5,4-d]-pyrimidines” (Dr. Karl Thomae GmbH, priority 1984, dated 1987).
